In patent US10597388B2, “Pyridazinone herbicides” (FMC CORPORATION, priority 2014, dated 2020):

Key:
Assay in all cases: Test D controlled growth environment herbicide test, pre- and postemergence
Assay type in all cases: in vivo
[1] = system: bromegrass, downy (downy bromegrass, Bromus tectorum)
Excerpt: (§1) Seeds of plant species selected from bluegrass (annual bluegrass, Poa annua), blackgrass (Alopecurus myosuroides), Canada thistle (Cirsium arvense), canarygrass (Phalaris minor), chickweed (common chickweed, Stellaria media), geranium, cutleaf (cutleaf geranium, Geranium dissectum), galium (catchweed bedstraw, Galium aparine), bromegrass, downy (downy bromegrass, Bromus tectorum), field poppy (Papaver rhoeas), field violet (Viola arvensis), foxtail, green (green foxtail, Setaria viridis), deadnettle (henbit deadnettle, Lamium amplexicaule), ryegrass, Italian (Italian ryegrass, Lolium multiflorum), kochia (Kochia scoparia), lambsquarters (Chenopodium album), oilseed rape (Brassica napus), pigweed (Amaranthus retroflexus), chamomile (scentless chamomile, Matricaria inodora), Russian thistle (Salsola kali), speedwell (bird's-eye speedwell, Veronica persica), barley, spring (spring barley, Hordeum vulgare), wheat, spring (spring wheat, Triticum aestivum), buckwheat, wild (wild buckwheat, Polygonum convolvulus), mustard, wild (wild mustard, Sinapis arvensis), oat, wild (wild oat, Avena fatua), radish, wild (wild radish, Raphanus raphanistrum), windgrass (Apera spica-venti), barley, winter (winter barley, Hordeum vulgare), and wheat, winter (winter wheat, Triticum aestivum) were planted into a silt loam soil and treated preemergence with test chemicals formulated in a non-phytotoxic solvent mixture which included a surfactant.
(§2) At the same time, these species were planted in pots containing Redi-Earth® planting medium (Scotts Company, 14111 Scottslawn Road, Marysville, Ohio 43041) comprising spaghnum peat moss, vermiculite, wetting agent and starter nutrients and treated with postemergence applications of the test chemicals formulated in the same manner. Plants ranged in height from 2 to 18 cm (1- to 4-leaf stage). Treated plants and controls were maintained in a controlled growth environment for 14 to 21 d after which time all species were compared to controls and visually evaluated. Plant response ratings, summarized in Table D, are based on a scale of 0 to 100 where 0 is no effect and 100 is complete control. A dash (-) response means no test result.

[2] = system: galium (catchweed bedstraw, Galium aparine)
Excerpt: as §1, §2

[3] = system: radish, wild (wild radish, Raphanus raphanistrum)
Excerpt: as §1, §2

kochia (Kochia scoparia) = system: kochia (Kochia scoparia)
Excerpt: as §1, §2

[4] = system: barley, winter (winter barley, Hordeum vulgare)
Excerpt: as §1, §2

[5] = system: buckwheat, wild (wild buckwheat, Polygonum convolvulus)
Excerpt: as §1, §2

[6] = system: field violet (Viola arvensis)
Excerpt: as §1, §2

[7] = system: pigweed (Amaranthus retroflexus)
Excerpt: as §1, §2

[8] = system: canarygrass (Phalaris minor)
Excerpt: as §1, §2

[9] = system: oat, wild (wild oat, Avena fatua)
Excerpt: as §1, §2

[10] = system: chickweed (common chickweed, Stellaria media)
Excerpt: as §1, §2

[11] = system: Russian thistle (Salsola kali)
Excerpt: as §1, §2

[12] = system: windgrass (Apera spica-venti)
Excerpt: as §1, §2

[13] = Postemergence, 31 g ai/ha, scale 0 to 100 (0 no effect, 100 complete control)
[14] = Postemergence, 125 g ai/ha, visual rating on scale 0 (no effect) to 100 (complete control), 14 to 21 d
[15] = Postemergence, 250 g ai/ha, scale 0 to 100 (0 no effect, 100 complete control)
[16] = Preemergence, 62 g ai/ha, scale 0 to 100 (0 no effect, 100 complete control)
[17] = Preemergence, 125 g ai/ha, scale 0 to 100 (0 no effect, 100 complete control)
[18] = Preemergence, 250 g ai/ha, scale 0 to 100 (0 no effect, 100 complete control)
[19] = postemergence, 62 g ai/ha, scale 0 to 100, 0 no effect, 100 complete control

SMILES: CC(=O)Oc1c(C)nn(C)c(=O)c1-c1c(C)sc2c(C)cc(C)cc12 [Compound 27]
- Bromegrass, Downy plant response rating [1, 13]: 15
- Plant response rating, Bromegrass, Downy [1, 14]: 55
- Plant response rating, Bromegrass, Downy [1, 15]: 70
- Plant response rating (scale of 0 to 100), Bromegrass, Downy ([1]; Preemergence, 31 g ai/ha): 35
- Plant response rating, Bromegrass, Downy [1, 16]: 55
- Plant response rating, Bromegrass, Downy [1, 17]: 85
- Plant response rating, Bromegrass, Downy [1, 18]: 85
- Plant response rating, Bromegrass, Downy [1, 19]: 25
- Galium plant response rating [2, 13]: 100
- Plant response rating, Galium [2, 14]: 100
- Plant response rating, Galium [2, 15]: 100
- Plant response rating (scale of 0 to 100), Galium ([2]; Preemergence, 31 g ai/ha): 60
- Plant response rating, Galium [2, 16]: 70
- Plant response rating, Galium [2, 17]: 85
- Plant response rating, Galium [2, 18]: 100
- Plant response rating, Galium [2, 19]: 100
- Radish, Wild plant response rating [3, 13]: 65
- Plant response rating, Radish, Wild [3, 14]: 85
- Plant response rating, Radish, Wild [3, 15]: 90
- Plant response rating (scale of 0 to 100), Radish, Wild ([3]; Preemergence, 31 g ai/ha): 0
- Plant response rating, Radish, Wild [3, 16]: 50
- Plant response rating, Radish, Wild [3, 17]: 60
- Plant response rating, Radish, Wild [3, 18]: 95
- Plant response rating, Radish, Wild [3, 19]: 75
- Kochia plant response rating (kochia (Kochia scoparia); [13]): 45
- Plant response rating, Kochia (kochia (Kochia scoparia); [14]): 55
- Plant response rating, Kochia (kochia (Kochia scoparia); [15]): 75
- Plant response rating (scale of 0 to 100), Kochia (kochia (Kochia scoparia); Preemergence, 31 g ai/ha): 0
- Plant response rating, Kochia (kochia (Kochia scoparia); [16]): 20
- Plant response rating, Kochia (kochia (Kochia scoparia); [17]): 30
- Plant response rating, Kochia (kochia (Kochia scoparia); [18]): 60
- Plant response rating, Kochia (kochia (Kochia scoparia); [19]): 55
- Plant response rating, Barley, Winter [4, 13]: 0
- Plant response rating, Barley, Winter [4, 14]: 5
- Plant response rating, Barley, Winter [4, 15]: 5
- Plant response rating (scale of 0 to 100), Barley, Winter ([4]; Preemergence, 31 g ai/ha): 0
- Plant response rating, Barley, Winter [4, 16]: 0
- Plant response rating, Barley, Winter [4, 17]: 10
- Barley, Winter plant response rating [4, 18]: 15
- Plant response rating, Barley, Winter [4, 19]: 0
- Buckwheat, Wild plant response rating [5, 13]: 100
- Plant response rating, Buckwheat, Wild [5, 14]: 100
- Plant response rating, Buckwheat, Wild [5, 15]: 100
- Plant response rating (scale of 0 to 100), Buckwheat, Wild ([5]; Preemergence, 31 g ai/ha): 25
- Plant response rating, Buckwheat, Wild [5, 16]: 30
- Plant response rating, Buckwheat, Wild [5, 17]: 45
- Plant response rating, Buckwheat, Wild [5, 18]: 80
- Plant response rating, Buckwheat, Wild [5, 19]: 100
- Field Violet plant response rating [6, 13]: 75
- Plant response rating, Field Violet [6, 14]: 75
- Plant response rating, Field Violet [6, 15]: 85
- Plant response rating (scale of 0 to 100), Field Violet ([6]; Preemergence, 31 g ai/ha): 80
- Plant response rating, Field Violet [6, 16]: 90
- Plant response rating, Field Violet [6, 17]: 95
- Plant response rating, Field Violet [6, 18]: 95
- Plant response rating, Field Violet [6, 19]: 70
- Pigweed plant response rating [7, 13]: 75
- Plant response rating, Pigweed [7, 14]: 95
- Plant response rating, Pigweed [7, 15]: 95
- Plant response rating (scale of 0 to 100), Pigweed ([7]; Preemergence, 31 g ai/ha): 100
- Plant response rating, Pigweed [7, 16]: 100
- Plant response rating, Pigweed [7, 17]: 100
- Plant response rating, Pigweed [7, 18]: 100
- Plant response rating, Pigweed [7, 19]: 85
- Canarygrass plant response rating [8, 13]: 75
- Plant response rating, Canarygrass [8, 14]: 85
- Plant response rating, Canarygrass [8, 15]: 90
- Plant response rating (scale of 0 to 100), Canarygrass ([8]; Preemergence, 31 g ai/ha): 85
- Plant response rating, Canarygrass [8, 16]: 95
- Plant response rating, Canarygrass [8, 17]: 100
- Plant response rating, Canarygrass [8, 18]: 100
- Plant response rating, Canarygrass [8, 19]: 80
- Oat, Wild plant response rating [9, 13]: 75
- Plant response rating, Oat, Wild [9, 14]: 90
- Plant response rating, Oat, Wild [9, 15]: 98
- Plant response rating (scale of 0 to 100), Oat, Wild ([9]; Preemergence, 31 g ai/ha): 85
- Plant response rating, Oat, Wild [9, 16]: 85
- Plant response rating, Oat, Wild [9, 17]: 90
- Plant response rating, Oat, Wild [9, 18]: 95
- Plant response rating, Oat, Wild [9, 19]: 85
- Chickweed plant response rating [10, 13]: 95
- Plant response rating, Chickweed [10, 14]: 100
- Plant response rating, Chickweed [10, 15]: 100
- Plant response rating (scale of 0 to 100), Chickweed ([10]; Preemergence, 31 g ai/ha): 100
- Plant response rating, Chickweed [10, 16]: 100
- Plant response rating, Chickweed [10, 17]: 100
- Plant response rating, Chickweed [10, 18]: 100
- Plant response rating, Chickweed [10, 19]: 100
- Russian Thistle plant response rating [11, 13]: 65
- Plant response rating, Russian Thistle [11, 14]: 70
- Plant response rating, Russian Thistle [11, 15]: 70
- Plant response rating (scale of 0 to 100), Russian Thistle ([11]; Preemergence, 31 g ai/ha): 0
- Plant response rating, Russian Thistle [11, 16]: 10
- Plant response rating, Russian Thistle [11, 17]: 65
- Plant response rating, Russian Thistle [11, 18]: 75
- Plant response rating, Russian Thistle [11, 19]: 75
- Windgrass plant response rating [12, 13]: 75
- Plant response rating, Windgrass [12, 14]: 80
- Plant response rating, Windgrass [12, 15]: 90
- Plant response rating (scale of 0 to 100), Windgrass ([12]; Preemergence, 31 g ai/ha): 75
- Plant response rating, Windgrass [12, 16]: 85
- Plant response rating, Windgrass [12, 17]: 100
- Plant response rating, Windgrass [12, 18]: 100
- Plant response rating, Windgrass [12, 19]: 75
